We go through 1 molecule from patent EP4786474A1, “CRYSTALLINE FORM OF QUINAZOLINE DERIVATIVE AND PREPARATION METHOD THEREFOR” (Jiangsu Hengrui Pharmaceuticals Co., Ltd., priority 2023, dated 2025).

The data set is described as follows: DVS (dynamic vapor sorption) hygroscopicity testing. The class given is physicochemical. The source says: According to the description of hygroscopicity characteristics and the definition of hygroscopic weight gain in "General Rule 9103, Guidelines for Hygroscopicity Trials for Pharmaceuticals" in the Chinese Pharmacopoeia, Volume IV, 2015 Edition: • deliquescent: sufficient water is absorbed to form a liquid; • extremely hygroscopic: the hygroscopic weight gain is not less than 15%; • hygroscopic: the hygroscopic weight gain is less than 15% but not less than 2%; • slightly hygroscopic: the hygroscopic weight gain is less than 2% but not less than 0.2%; • nonhygroscopic or practically nonhygroscopic: the hygroscopic weight gain is less than 0.2%.
DVS refers to dynamic vapor sorption: The analysis was performed using SMS DVS Advantage; at 25 °C, the humidity was changed as follows: 50%-95%-0%-95%-50%, in steps of 10% (5% for the last step) (specific humidity ranges are shown in corresponding patterns, and those listed here were used in most cases); the criterion was dm/dt being not greater than 0.002%.

As to `C=CC(=O)N1[C@@H]2CC[C@H]1C[C@@H](Oc1ccc3ncnc(Nc4ccc(Oc5ccn6ncnc6c5)c(C)c4F)c3c1)C2` [Crystal form J, 1-(endo-3-((4-((4-([1,2,4]Triazolo[1,5-a]pyridin-7-yloxy)-2-fluoro-3-methylphenyl)amino)quinazolin-6-yl)oxy)-8-azabicyclo[3.2.1]octan-8-yl)prop-2-en-1-one], the hygroscopic weight gain result is “about 2.64%” (accelerated experimental conditions, 70% RH); “about 8.10%” (extreme conditions, 90% RH); “about 2.44%” (normal storage conditions, 25 °C and 60% RH).
